Results as given in ChEMBL document CHEMBL1201862, “PubChem BioAssay data set” (2004).
Calls of active or inactive are those of the source.

What was measured:
[1] = target: T1, Heat shock factor protein 1 (Mus musculus, UniProt P38532); test: decrease of HSF1-responsive luciferase luminescence – cell-based, NIH3T3, dose retest, confirmation (AID 2382); assay type: functional;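 further: NIH3T3 fibroblasts with HSF1-driven luciferase reporter stressed by proteasome inhibitor MG132; luminescence from HSF1-driven luciferase expression after 8 hours of MG132 stress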
T1 sequence (P38532 whole entry): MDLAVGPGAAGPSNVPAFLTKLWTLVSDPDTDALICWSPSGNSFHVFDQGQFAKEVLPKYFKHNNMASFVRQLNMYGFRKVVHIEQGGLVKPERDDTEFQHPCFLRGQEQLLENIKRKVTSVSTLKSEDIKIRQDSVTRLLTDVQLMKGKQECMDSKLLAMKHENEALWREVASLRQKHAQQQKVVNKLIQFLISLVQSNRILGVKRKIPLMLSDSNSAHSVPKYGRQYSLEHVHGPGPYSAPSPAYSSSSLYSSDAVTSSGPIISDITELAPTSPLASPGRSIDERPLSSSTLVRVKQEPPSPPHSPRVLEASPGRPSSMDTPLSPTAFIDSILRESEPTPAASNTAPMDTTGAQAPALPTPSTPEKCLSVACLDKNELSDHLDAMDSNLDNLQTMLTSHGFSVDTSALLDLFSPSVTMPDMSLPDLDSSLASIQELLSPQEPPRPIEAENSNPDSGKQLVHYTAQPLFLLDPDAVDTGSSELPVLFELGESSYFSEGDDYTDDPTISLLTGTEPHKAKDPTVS

Cytochrome P450 3A4 = Cytochrome P450 3A4 (Homo sapiens, UniProt P08684);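 further: CYP3A4 tested as one member of a cytochrome P450 panel screen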
Cytochrome P450 3A4, sequence (P08684 whole entry): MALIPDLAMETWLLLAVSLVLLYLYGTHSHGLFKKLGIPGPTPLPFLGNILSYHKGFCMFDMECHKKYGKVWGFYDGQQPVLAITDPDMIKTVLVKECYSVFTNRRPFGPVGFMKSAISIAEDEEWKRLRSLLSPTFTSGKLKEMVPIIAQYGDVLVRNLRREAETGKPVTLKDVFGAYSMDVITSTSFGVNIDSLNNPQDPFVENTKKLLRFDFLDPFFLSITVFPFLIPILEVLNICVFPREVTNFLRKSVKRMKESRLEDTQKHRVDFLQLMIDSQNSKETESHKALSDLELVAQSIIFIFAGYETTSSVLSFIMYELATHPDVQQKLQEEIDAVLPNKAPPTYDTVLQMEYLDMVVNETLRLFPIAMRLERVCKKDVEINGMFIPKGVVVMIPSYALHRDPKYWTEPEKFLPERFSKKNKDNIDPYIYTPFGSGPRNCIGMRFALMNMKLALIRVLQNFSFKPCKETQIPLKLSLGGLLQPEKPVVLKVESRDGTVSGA

[2] = target: T2, Replicative DNA helicase DnaB (Mycobacterium tuberculosis, UniProt P9WMR3); test: DnaB intein splicing inhibitors, dose response, biochemical, cell-free fluorescence (AID 449749); assay type: functional
T2 sequence (P9WMR3 whole entry): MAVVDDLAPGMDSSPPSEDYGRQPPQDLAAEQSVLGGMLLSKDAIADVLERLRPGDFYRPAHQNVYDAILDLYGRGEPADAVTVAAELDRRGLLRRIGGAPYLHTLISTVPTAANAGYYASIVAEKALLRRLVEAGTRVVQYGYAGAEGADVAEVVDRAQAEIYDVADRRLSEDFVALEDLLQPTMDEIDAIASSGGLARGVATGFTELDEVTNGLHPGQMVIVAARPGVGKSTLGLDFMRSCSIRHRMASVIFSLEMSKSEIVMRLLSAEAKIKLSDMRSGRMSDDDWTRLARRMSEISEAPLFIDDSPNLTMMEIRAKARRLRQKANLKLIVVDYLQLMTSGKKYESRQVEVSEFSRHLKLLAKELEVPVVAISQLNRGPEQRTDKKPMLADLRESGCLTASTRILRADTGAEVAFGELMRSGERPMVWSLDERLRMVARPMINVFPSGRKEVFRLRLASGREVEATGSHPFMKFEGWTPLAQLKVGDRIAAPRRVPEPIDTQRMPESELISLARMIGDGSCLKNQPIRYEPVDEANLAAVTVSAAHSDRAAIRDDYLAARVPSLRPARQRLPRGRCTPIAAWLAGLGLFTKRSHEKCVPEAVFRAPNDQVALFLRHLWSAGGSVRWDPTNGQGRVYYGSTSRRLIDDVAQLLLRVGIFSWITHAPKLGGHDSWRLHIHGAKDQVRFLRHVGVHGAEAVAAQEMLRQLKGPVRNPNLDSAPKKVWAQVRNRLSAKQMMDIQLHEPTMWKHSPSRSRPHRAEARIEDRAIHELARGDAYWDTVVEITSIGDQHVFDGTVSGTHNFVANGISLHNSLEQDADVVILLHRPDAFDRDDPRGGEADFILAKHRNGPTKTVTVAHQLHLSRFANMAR

Protein RecA = target: T3, Protein RecA (Mycobacterium tuberculosis, UniProt P9WHJ3); test: Fluorescence Cell-Free Homogeneous Dose Retest to Identify Inhibitors of RecA-Intein Splicing Activity. [Related pubchem assays (depositor defined):AID2097, AID2223, AID489010, AID492950]; assay type: functional
T3 sequence (P9WHJ3 whole entry): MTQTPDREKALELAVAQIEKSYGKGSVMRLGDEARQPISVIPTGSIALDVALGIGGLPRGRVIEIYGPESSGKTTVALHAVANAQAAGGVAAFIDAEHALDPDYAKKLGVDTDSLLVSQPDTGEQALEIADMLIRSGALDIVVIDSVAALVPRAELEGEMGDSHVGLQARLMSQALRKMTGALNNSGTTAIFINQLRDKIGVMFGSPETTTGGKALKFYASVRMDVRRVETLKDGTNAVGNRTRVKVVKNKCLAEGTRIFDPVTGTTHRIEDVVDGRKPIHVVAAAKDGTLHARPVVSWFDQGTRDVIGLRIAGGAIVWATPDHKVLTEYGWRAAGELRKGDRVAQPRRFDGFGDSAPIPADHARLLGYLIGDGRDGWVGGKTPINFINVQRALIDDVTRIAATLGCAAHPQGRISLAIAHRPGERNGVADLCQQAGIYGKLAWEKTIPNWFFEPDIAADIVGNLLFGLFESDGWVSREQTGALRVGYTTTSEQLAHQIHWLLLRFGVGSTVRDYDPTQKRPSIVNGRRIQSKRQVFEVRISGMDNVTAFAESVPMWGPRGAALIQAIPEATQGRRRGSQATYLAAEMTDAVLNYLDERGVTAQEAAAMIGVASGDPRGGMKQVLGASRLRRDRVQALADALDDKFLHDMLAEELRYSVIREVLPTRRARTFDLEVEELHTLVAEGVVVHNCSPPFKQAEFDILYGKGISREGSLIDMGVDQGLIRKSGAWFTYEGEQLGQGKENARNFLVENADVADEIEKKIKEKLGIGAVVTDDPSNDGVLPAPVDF

H9c2 = test: cells; assay type: functional, cell-based; details: Rattus norvegicus, H9c2, Myocardium
Cytochrome P450 2C19 = Cytochrome P450 2C19 (Homo sapiens, UniProt P33261); test: Cytochrome panel assay with activity outcomes. Panel member name: p450-cyp2c19 Compounds with AC50 equal or less than 10 uM are considered active; assay type: functional; details: read-out: AC50
Cytochrome P450 2C19, sequence (P33261 whole entry): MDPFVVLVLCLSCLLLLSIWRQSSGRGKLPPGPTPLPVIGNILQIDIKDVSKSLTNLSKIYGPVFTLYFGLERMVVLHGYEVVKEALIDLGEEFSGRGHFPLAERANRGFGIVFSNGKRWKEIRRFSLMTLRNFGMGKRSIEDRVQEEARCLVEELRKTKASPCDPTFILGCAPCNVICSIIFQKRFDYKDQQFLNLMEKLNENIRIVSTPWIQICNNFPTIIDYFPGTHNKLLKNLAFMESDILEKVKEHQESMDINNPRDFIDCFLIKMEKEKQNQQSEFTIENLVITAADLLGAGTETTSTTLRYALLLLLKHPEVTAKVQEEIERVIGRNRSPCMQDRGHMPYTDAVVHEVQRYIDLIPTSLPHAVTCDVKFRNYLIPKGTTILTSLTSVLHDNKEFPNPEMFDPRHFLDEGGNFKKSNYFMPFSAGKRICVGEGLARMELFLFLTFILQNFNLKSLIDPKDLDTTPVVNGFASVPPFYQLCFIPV

[3] = system: Streptococcus sp. 'group A'; test: Streptococcus pyogenes SK(-)GAS viability under kanamycin – luminescence, BacTiterGlo, confirmation, counter-screen for streptokinase expression inhibitor project, dose response (AID 1900); assay type: functional, organism-based
Streptokinase A = target: T4, Streptokinase A (Streptococcus pyogenes serotype M1, UniProt P10520); test: viability-normalized secreted streptokinase activity reduction – plasminogen activation absorbance, OD405, dose response (AID 1914); assay type: functional, Streptococcus pyogenes M1 GAS;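 further: secreted streptokinase activity via plasminogen activation per viability signal from cell pellet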
T4 sequence (P10520 whole entry): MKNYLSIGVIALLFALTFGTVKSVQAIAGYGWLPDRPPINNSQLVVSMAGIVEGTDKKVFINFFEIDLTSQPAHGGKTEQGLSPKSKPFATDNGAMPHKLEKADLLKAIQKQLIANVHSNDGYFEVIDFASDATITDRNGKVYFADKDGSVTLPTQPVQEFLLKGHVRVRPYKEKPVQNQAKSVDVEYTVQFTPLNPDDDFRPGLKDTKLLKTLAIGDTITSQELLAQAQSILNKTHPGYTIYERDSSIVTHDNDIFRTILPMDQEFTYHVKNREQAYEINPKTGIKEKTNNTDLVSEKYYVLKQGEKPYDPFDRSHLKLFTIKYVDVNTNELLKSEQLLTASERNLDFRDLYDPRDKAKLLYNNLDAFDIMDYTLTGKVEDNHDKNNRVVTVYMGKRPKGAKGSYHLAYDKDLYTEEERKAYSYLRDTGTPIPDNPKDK

[4] = Trypanosoma cruzi growth suppression in host cells – NIH3T3 host cells, beta-gal luminescence, confirmation (AID 2044); assay type: functional, cell-based;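 further: intracellular parasites grown in NIH/3T3 mouse fibroblasts as host cells; luminescent beta-galactosidase reporter signal from transgenic T. cruzi replicating inside host cells; inhibitors lower the luminescence signal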
[5] = NIH3T3 cell viability loss – ATP luminescence, mouse fibroblasts, counter-screen, dose response (AID 2010); assay type: functional, cell-based;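 further: cells exposed to compound for about 90 hours before reading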
Streptococcus = test: GAS UMAA2166 growth inhibition – luminescence, BacTiterGlo, counter-screen for streptokinase expression inhibitor project, dose response (AID 1915); assay type: functional, organism-based;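 further: potency for reduction of bacterial viability or growth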
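Wherever IC50 is given: confirmatory concentration-response retest of ultra-high-throughput screening hits for modulation of myocardial damage; cell death induced by hydrogen peroxide oxidative stress; compound pretreatment for 60 min then peroxide exposure for 2 h; potency is for protecting the cells against peroxide damage rather than for killing them.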

## CC(C)c1nc2ccccc2c2nnc(SCC(=O)NCc3ccco3)n12
[1]
  EC50: > 195 µM (not active)

## Cc1ccc(CSC(=N)Nc2ccccc2)cc1C
Cytochrome P450 3A4
  AC50: 3.16 µM (inconclusive)

## CCOC(=O)Cc1n[nH]c2c1C(c1cccc(OC)c1OC)C(C#N)=C(N)O2 (stereo not drawn)
[2]
  AC50: 34.7 µM (inconclusive)
Protein RecA
  EC50: > 380 µM (inactive)

## CC(C)c1ccccc1NC(=O)COC(=O)c1c2c(nc3ccccc13)CCN(Cc1ccccc1)C2
H9c2
  IC50: > 79 µM (inactive)

## Cc1ccc(C)c(C(=O)Nc2cc(C)nn2-c2nc(C)cc(C)n2)c1
[1]
  EC50: > 195 µM (not active)
H9c2
  IC50: > 79 µM (inactive)

## O=C(N/N=C/c1ccco1)/C(=C/c1cccc([N+](=O)[O-])c1)NC(=O)c1ccccc1
Cytochrome P450 2C19
  AC50: 1 µM (inconclusive)
Cytochrome P450 3A4
  AC50: 1.12 µM (inconclusive)

## COc1cc2c(cc1OC)CN(c1nc(-c3cccnc3)nc3ccccc13)CC2
H9c2
  IC50: > 79 µM (inactive)

## CCOC(=O)c1[nH]c2cc(OC)c(OC)cc2c1NC(=O)C(C)N1CCN(Cc2ccccc2)CC1 (stereo not drawn)
H9c2
  IC50: 10.2 µM (active)

## Cc1c(C(=O)Nc2ccc3nc(N4CCOCC4)sc3c2)oc2ccccc12
H9c2
  IC50: > 79 µM (inactive)

## Cc1ccc(CS(=O)(=O)CCC(=O)NCc2ccccn2)cc1
Cytochrome P450 3A4
  AC50: 31.6 µM (inconclusive)

## COC(=O)c1[nH]c2ccccc2c1NC(=O)CNC1CCCCC1
H9c2
  IC50: > 79 µM (inactive)

## COc1ccc(C2NC(S)=NC3=C2CCc2ccccc23)cc1OC (stereo not drawn)
[2]
  AC50: 20 µM (active)
Protein RecA
  EC50: 11.2 µM (active)

## C=CCC(Nc1ccccc1)c1ccc(OC)c(OC)c1 (stereo not drawn)
[1]
  EC50: > 195 µM (not active)

## CCS(=O)(=O)N1CCC2(CC1)OCCN2S(=O)(=O)c1ccc(OC)cc1
[1]
  EC50: > 195 µM (not active)

## CCOc1cc(/C=C/c2ccc3cccc([N+](=O)[O-])c3n2)ccc1OCC(=O)N(C)C
H9c2
  IC50: 10.7 µM (active)

## CCCC(C)NS(=O)(=O)c1ccccc1 (stereo not drawn)
[1]
  EC50: > 195 µM (not active)

## Cc1cc(C)nc(SCc2ccc(C(=O)N/N=C/c3ccccn3)cc2)n1
H9c2
  IC50: > 79 µM (inactive)

## COc1ccc(/C=C/C(=O)N2CCN(c3ccccn3)CC2)cc1OC
[1]
  EC50: > 195 µM (not active)

## CCCc1n[nH]c2c1C(c1ccc(OCCN3CCOCC3)c(OC)c1)C(C#N)=C(N)O2 (stereo not drawn)
[2]
  AC50: 41.4 µM (active)
Protein RecA
  EC50: 9.37 µM (active)

## O=C(O)CSc1c2c(nc3cc(C(=O)Nc4cccc(C(F)(F)F)c4)ccc13)CCCC2
[2]
  AC50: 22.6 µM (active)
Protein RecA
  EC50: 13 µM (active)

## COc1ccccc1CNC(=O)N1CCN(c2ccccc2C)CC1
[1]
  EC50: > 195 µM (not active)

## CO[C@H]1COC(=O)[C@@H](C)COC(=O)[C@@H](Cc2ccccc2)NC(=O)C/C=C\[C@H]1C
Cytochrome P450 3A4
  AC50: 6.31 µM (inconclusive)

## Cc1cccc(Sc2c(C=O)c3ccccc3n2C)c1
[2]
  AC50: 5.7 µM (active)
Protein RecA
  EC50: 29.6 µM (active)

## CCOc1cc(C(=S)N2CCOCC2)ccc1OS(=O)(=O)c1ccc(OC)cc1
[1]
  EC50: > 195 µM (not active)

## COc1ccc(N2C(=O)CC(NNc3ncc(Cl)cc3Cl)C2=O)cc1 (stereo not drawn)
[1]
  EC50: > 195 µM (not active)

## CC(C)c1ccc(OCCCN2CCCC2)cc1
[1]
  EC50: > 195 µM (not active)

## O=C(O)C1CSC(c2ccc3c(c2)OCO3)N1 (stereo not drawn)
[1]
  EC50: > 195 µM (not active)

## Cc1cccc2sc(NC(=O)[C@H](C)N3C(=O)C4CC=CCC4C3=O)nc12 (stereo partly drawn)
[1]
  EC50: > 195 µM (not active)

## COc1cc(/C=C(\C#N)C(=O)Nc2ccccc2)ccc1OCCN1CCOCC1
H9c2
  IC50: > 79 µM (inactive)

## CSc1ncccc1C(=O)N1CCCC(N2CCN(c3ccccc3F)CC2)C1 (stereo not drawn)
[1]
  EC50: > 195 µM (not active)

## Oc1ncnc2sc3c(c12)CCC3
H9c2
  IC50: 23 µM (active)

## O=C1CC(CSc2ccc(Cl)cc2)=NN1
[2]
  AC50: 3.23 µM (active)
Protein RecA
  EC50: 1.61 µM (active)

## CCOC(=O)/C(=N\Nc1ccc(OC)cc1)c1csc(Nc2ccccc2)n1
[3]
  EC50: 3.87 µM (active)
Streptokinase A
  EC50: > 150 µM (not active)
[4]
  EC50: 1.33 µM (active)
[5]
  EC50: 9.87 µM (active)
Streptococcus
  EC50: 10.8 µM (active)

## COc1ccc([N+](=O)[O-])cc1NC(=O)C(C)OC(=O)Cn1[nH]c(=O)c2ccccc2c1=O (stereo not drawn)
H9c2
  IC50: > 79 µM (inactive)

## O=C(Cn1cccc1)NC1CCCCCC1
Cytochrome P450 2C19
  AC50: 6.31 µM (inconclusive)
Cytochrome P450 3A4
  AC50: 17.8 µM (inconclusive)

## CCN(CC(=O)Nc1c(F)cccc1F)C(=O)Cn1[nH]c(=O)c2ccccc2c1=O
H9c2
  IC50: > 79 µM (inactive)

## CSc1n[nH]c(-c2sccc2OCc2ccc(C)cc2)n1
Cytochrome P450 3A4
  AC50: 20 µM (inconclusive)

## COc1ccc(-c2cc(-c3ccc(O)cc3)nc(N)c2C#N)cc1OC
H9c2
  IC50: > 79 µM (inactive)

## COc1cccc(CNC(=O)c2ccccc2SCC(=O)N2CCCC2)c1
[1]
  EC50: > 195 µM (not active)

## COc1cccc(-c2cnc3c(NC=O)cc(-c4cc(C)c(O)c(C)c4)cn23)c1
H9c2
  IC50: > 79 µM (inactive)

## COC(=O)c1ccccc1S(=O)(=O)N1CCC(NC(=O)c2ccccc2)CC1
[2]
  AC50: 3.36 µM (active)
Protein RecA
  EC50: 15.1 µM (active)

## COc1cc(OC)cc(C(=O)NC(=S)N2CCN(c3ccc(C(F)(F)F)cc3[N+](=O)[O-])CC2)c1
[3]
  EC50: 1.61 µM (active)
Streptokinase A
  EC50: > 150 µM (not active)
Streptococcus
  EC50: > 150 µM (not active)
